# In patent publication US20230119082A1, “(AZIRIDINYL HYDROXY)-FUNCTIONAL ORGANIC COMPOUNDS” (COVESTRO (NETHERLANDS) B.V., priority 2020, published 2023):
# Tests used:
# Bscl2-GFP = test: in vitro; settings: mouse; for fold induction at 3 h / fold induction at 24 h: −fold induction Bscl 2
# Experimental: (§1) In the context of the specification, the genotoxicity is measured according to the ToxTracker® assay (Toxys, Leiden, the Netherlands) as described in the Examples.
# (§2) The genotoxicity was determined according to the ToxTracker® assay (Toxys, Leiden, the Netherlands) as described below.
# (§3) This methodology uses a two-step approach.
# (§4) Positive reference treatment with cisplatin (DNA damage) was included in all experiments. Metabolic was evaluated by the addition of S9 liver extract. […] Only GFP expression in single intact cells is determined. Mean GFP fluorescence and cell concentrations in each well are measured, which is used for cytotoxicity assessment. Data were analyzed using ToxPlot software (Toxys, Leiden, the Netherlands).
# Rtkn-GFP = test: in vitro; settings: mouse
# Experimental: as §1, §2, §3, §4
smiles,measurement,setting,value
CC1CN1CC(O)COC(=O)NCCCCCCn1c(=O)n(CCCCCCNC(=O)OCC(O)CN2CC2C)c(=O)n(CCCCCCNC(=O)OCC(O)CN2CC2C)c1=O (stereo not drawn) [Example 3],−fold induction Bscl 2,Bscl2-GFP; 3 h,1.5 fold
same,fold induction at 3 h,Bscl2-GFP,1.2
same,fold induction at 24 h,Bscl2-GFP,1.1
same,fold induction at 3 h,Rtkn-GFP,1.1
same,fold induction at 24 h,Rtkn-GFP,1.2
CC1CN1CC(O)CN(Cc1cccc(CN(CC(O)CN2CC2C)CC(O)CN2CC2C)c1)CC(O)CN1CC1C (stereo not drawn) [Example 2C],fold induction at 3 h,Bscl2-GFP,1.3
same,fold induction at 24 h,Bscl2-GFP,1.3
CC1CN1CC(O)COc1ccc(C(C)(C)c2ccc(OCC(O)CN3CC3C)cc2)cc1 (stereo not drawn) [Example 4C],fold induction at 3 h,Bscl2-GFP,1.1
same,fold induction at 24 h,Bscl2-GFP,1.1
CC1CN1CC(O)COc1ccc(N(CC(O)CN2CC2C)CC(O)CN2CC2C)cc1 (stereo not drawn) [Example 3C],fold induction at 3 h,Bscl2-GFP,1.2
same,fold induction at 24 h,Bscl2-GFP,1.1
same,fold induction at 24 h,Rtkn-GFP,1.7
